In US12077555B2, “STAT degraders and uses thereof” (Kymera Therapeutics, Inc., priority 2019, dated 2024) one finds DC50 data, which are given here for eleven compounds.

The assay concerns the target STAT3 (Homo sapiens, UniProt P40763). The assay is described as follows: STAT3 HiBiT degradation assay in transfected A549 cells. The following applies: A549, 24 h; read-out: STAT3 HiBiT A549 degradation 24 h: Average external-Abs DC50. Further details: expressed in transfected cells; host or cells: A549. It counts as cell-based. The procedure:
Compound preparation and Cell seeding: The transfected A549 cells were harvested from dish into cell culture medium and cell numbers counted. Cells were diluted with culture medium to the desired density and 30 μL of cell suspension (about 2000 cells/well) were added into each well of a 384-well cell culture plate as designated and transferred into 37° C. 5% CO2 incubator for 24 h. Compounds were dissolved to 10 mM stock solution and 12 μL of the stock solution was transferred to a 384 LDV-plate. 3 fold, 10-point dilution was performed by transferring 4 μL compound into 8 μL DMSO using a TECAN (EVO200) liquid handler. 30 μL of diluted compound from compound source plate was transferred into the cell plate as designated by using Echo550 and transferred into 37° C. 5% CO2 incubator for 24 h.
Detection: Plates were removed from incubators and equilibrated at room temperature for 15 minutes. Nano-Glo Hibit Lytic Detection reagent (Promega Cat #N3040) was thawed and equilibrated to room temperature before the experiment. 30 μL of Nano-Glo Hibit Lytic Detection reagent was added into each well to be detected. The plates were held at room temperature for 10 min followed by reading on EnSpire.
Data analysis: The remaining activity was calculated following the formula: Remaining Activity (%)=100%×(Lumsample−LumNC)/(LumPC−LumNC). Calculate the IC50 by fitting the curve using Xlfit (v5.3.1.3), equation 201: fit=(A+((B−A)/(1+((x/C)^D)))); A: Bottom; B: Top; C: IC50; and D: Slope.
The letter codes for STAT3 DC50 include: A (<0.01 μM), B (0.01-0.1 μM), C (0.1-1.0 μM), and D (>1.0 μM).
(In general: HiBiT is a short tag that completes a luciferase, so light tracks the accessible tagged protein.)

Sequence of STAT3 (P40763 whole entry): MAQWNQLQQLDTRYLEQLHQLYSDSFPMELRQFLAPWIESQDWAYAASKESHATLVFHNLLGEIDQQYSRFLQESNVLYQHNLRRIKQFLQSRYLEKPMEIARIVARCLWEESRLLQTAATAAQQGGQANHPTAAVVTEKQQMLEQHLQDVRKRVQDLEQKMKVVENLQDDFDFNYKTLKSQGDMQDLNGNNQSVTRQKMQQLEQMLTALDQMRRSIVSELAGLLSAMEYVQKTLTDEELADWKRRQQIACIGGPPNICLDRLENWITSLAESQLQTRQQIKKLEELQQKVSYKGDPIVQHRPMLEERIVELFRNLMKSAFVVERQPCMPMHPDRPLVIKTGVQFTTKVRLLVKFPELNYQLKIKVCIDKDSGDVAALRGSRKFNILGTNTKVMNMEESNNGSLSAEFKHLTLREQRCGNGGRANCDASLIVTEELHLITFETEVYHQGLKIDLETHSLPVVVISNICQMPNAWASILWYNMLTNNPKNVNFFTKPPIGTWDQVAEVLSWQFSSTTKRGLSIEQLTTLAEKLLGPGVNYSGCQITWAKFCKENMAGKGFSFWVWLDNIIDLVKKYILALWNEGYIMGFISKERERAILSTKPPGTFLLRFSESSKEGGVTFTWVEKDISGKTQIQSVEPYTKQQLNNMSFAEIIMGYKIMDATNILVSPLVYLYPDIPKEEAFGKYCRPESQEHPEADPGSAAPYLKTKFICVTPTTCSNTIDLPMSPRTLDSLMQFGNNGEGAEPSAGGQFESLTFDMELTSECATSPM

Broadly, the DC50 is the concentration at which degradation of the target reaches its halfway point. On to `Cc1ncsc1-c1ccc([C@H](C)NC(=O)[C@@H]2C[C@H](O)CN2C(=O)[C@@H](NC(=O)CCCCc2ccc(CO[C@H](C)[C@H](CCC(N)=O)NC(=O)[C@@H]3Cc4cccc5c4N3C(=O)[C@@H](NC(=O)c3cc4cc(C(=O)P(=O)(O)O)ccc4[nH]3)CC5)cc2)C(C)(C)C)cc1` [Compound I-149, diammonium 2-[[(2S,11S)-2-[[(3S,4R)-1-carbamoyl-4-[[4-(4-[[(2S)-1-[(2S,4S)-4-hydroxy-2-[[(1S)-1-[4-(4-methyl-1,3-thiazol-5-yl)phenyl]ethyl]carbamoyl]pyrrolidin-1-yl]-3,3-dimethyl-1-oxobutan-2-yl]carbamoyl]butyl)phenyl]methoxy]pentan-3-yl]carbamoyl]-12-oxo-1-azatricyclo [6.4.1.0^[4,13]]trideca-4(13),5,7-trien-11-yl]carbamoyl]-1H-indole-5-carbonylphosphonate], for which the DC50 is more than 1000 nM.

Take `Cn1c(=O)n(C2CCC(=O)NC2=O)c2ccc(CN3CCN(CC(=O)N4CC[C@H]5CC[C@@H](C(=O)N[C@@H](CCC(N)=O)C(=O)NC(c6ccccc6)c6ccccc6)N5C(=O)[C@@H](NC(=O)c5cc6cc(C(=O)P(=O)(O)O)ccc6[nH]5)C4)CC3)cc21` (stereo partly drawn) [Compound I-157, 2-[[(5S,8S,10aR)-8-[[(1S)-3-carbamoyl-1-(diphenylmethylcarbamoyl)propyl]carbamoyl]-3-[2-(4-[[1-(2,6-dioxopiperidin-3-yl)-3-methyl-2-oxo-1,3-benzodiazol-5-yl]methyl]piperazin-l-yl)acetyl]-6-oxo-octahydropyrrolo[1,2-a][1,5]diazocin-5-yl]carbamoyl]-1H-indole-5-carbonylphosphonic acid]: the 50% degradation concentration (DC50) is 100 to 1000 nM.

Regarding `CC(=O)N1CC[C@H]2CC[C@@H](C(=O)N[C@@H](CCC(N)=O)COc3cccc(CCCCC(=O)N[C@H](C(=O)N4C[C@H](O)C[C@H]4C(=O)N[C@@H](C)c4ccc(-c5scnc5C)cc4)C(C)(C)C)c3F)N2C(=O)[C@@H](NC(=O)c2cc3cc(C(=O)P(=O)(O)O)ccc3[nH]2)C1` [Compound I-263, 2-[[(5S,8S,10aR)-3-acetyl-8-[[(2S)-4-carbamoyl-1-[2-fluoro-3-(4-[[(2S)-1-[(2S,4R)-4-hydroxy-2-[[(1S)-1-[4-(4-methyl-1,3-thiazol-5-yl)phenyl]ethyl]carbamoyl]pyrrolidin-1-yl]-3,3-dimethyl-1-oxobutan-2-yl]carbamoyl]butyl)phenoxy]butan-2-yl]carbamoyl]-6-oxo-octahydropyrrolo[1,2-a][1,5]diazocin-5-yl]carbamoyl]-1H-indole-5-carbonylphosphonic acid], the half-maximal degradation concentration (DC50) was less than 10 nM.

For the compound `Cc1ncsc1-c1ccc([C@H](C)NC(=O)[C@@H]2C[C@@H](O)CN2C(=O)[C@@H](NC(=O)CCCCCc2cc(OC[C@@H](NC(=O)[C@@H]3Cc4cccc5c4N3C(=O)[C@@H](NC(=O)c3cc4cc(C(=O)P(=O)(O)O)ccc4[nH]3)CC5)C(N)=O)ccc2Cl)C(C)(C)C)cc1` [Compound I-199, diammonium 2-[[(2S,11S)-2-[[(2S)-4-carbamoyl-1-[4-chloro-3-(5-[[(2S)-1-[(2S,4R)-4-hydroxy-2-[[(1S)-1-[4-(4-methyl-1,3-thiazol-5-yl)phenyl]ethyl]carbamoyl]pyrrolidin-1-yl]-3,3-dimethyl-1-oxobutan-2-yl]carbamoyl]pentyl)phenoxy]butan-2-yl]carbamoyl]-12-oxo-1-azatricyclo[6.4.1.0^[4,13]]trideca-4(13),5,7-trien-11-yl]carbamoyl]-1H-indole-5-carbonylphosphonate], the DC50 was 10 to 100 nM.

As for `Cc1ncsc1-c1ccc(CNC(=O)[C@@H]2C[C@@H](O)CN2C(=O)[C@@H](NC(=O)[C@H]2C[C@H](Cc3ccc(CO[C@H](C)[C@H](CCC(N)=O)NC(=O)[C@@H]4Cc5cccc6c5N4C(=O)[C@@H](NC(=O)c4cc5cc(C(=O)P(=O)(O)O)ccc5[nH]4)CC6)cc3)C2)C(C)(C)C)cc1` [Compound I-146, diammonium 2-[[(2S,11S)-2-[[(3S,4R)-1-carbamoyl-4-[(4-[[(1r,3r)-3-[[(2S)-1-[(2S,4R)-4-hydroxy-2-([[4-(4-methyl-1,3-thiazol-5-yl)phenyl]methyl]carbamoyl)pyrrolidin-1-yl]-3,3-dimethyl-1-oxobutan-2-yl]carbamoyl]cyclobutyl]methyl]phenyl)methoxy]pentan-3-yl]carbamoyl]-12-oxo-1-azatricyclo[6.4.1.0^[4,13]]trideca-4(13),5,7-trien-11-yl]carbamoyl]-1H-indole-5-carbonylphosphonate], the DC50 fell in the range of 100 to 1000 nM.

As for `Cc1ncsc1-c1ccc(CNC(=O)[C@@H]2C[C@@H](O)CN2C(=O)[C@@H](NC(=O)C2(CCCc3ccc(CO[C@H](C)[C@H](CCC(N)=O)NC(=O)[C@@H]4Cc5cccc6c5N4C(=O)[C@@H](NC(=O)c4cc5cc(C(=O)P(=O)(O)O)ccc5[nH]4)CC6)cc3)CC2)C(C)(C)C)cc1` [Compound I-223, diammonium 2-[[(2S,11S)-2-[[(3S,4R)-1-carbamoyl-4-([4-[3-(1-[[(2S)-1-[(2S,4R)-4-hydroxy-2-([[4-(4-methyl-1,3-thiazol-5-yl)phenyl]methyl]carbamoyl)pyrrolidin-1-yl]-3,3-dimethyl-1-oxobutan-2-yl]carbamoyl]cyclopropyl)propyl]phenyl]methoxy)pentan-3-yl]carbamoyl]-12-oxo-1-azatricyclo[6.4.1.0^[4,13]]trideca-4(13),5,7-trien-11-yl]carbamoyl]-1H-indole-5-carbonylphosphonate], the DC50 lay in the range of 100 to 1000 nM.

Regarding `Cc1ncsc1-c1ccc(CNC(=O)[C@@H]2C[C@@H](O)CN2C(=O)[C@@H](NC(=O)CC2CC(Cc3ccc(CO[C@H](C)[C@H](CCC(N)=O)NC(=O)[C@@H]4Cc5cccc6c5N4C(=O)[C@@H](NC(=O)c4cc5cc(C(=O)P(=O)(O)O)ccc5[nH]4)CC6)cc3)C2)C(C)(C)C)cc1` (some centres unmarked) [Compound I-163], the DC50 was more than 1000 nM.

As to `Cn1c(=O)n(C2CCC(=O)NC2=O)c2ccc(C3CC(CCCC(=O)N4CC[C@H]5CC[C@@H](C(=O)N[C@@H](CCC(N)=O)C(=O)NC(c6ccccc6)c6ccccc6)N5C(=O)[C@@H](NC(=O)c5cc6cc(C(=O)P(=O)(O)O)ccc6[nH]5)C4)C3)cc21` (stereo partly drawn) [Compound I-228, 2-[[(5S,8S,10aR)-8-[[(1S)-3-carbamoyl-1-(diphenylmethylcarbamoyl)propyl]carbamoyl]-3-(4-[3-[1-(2,6-dioxopiperidin-3-yl)-3-methyl-2-oxo-1,3-benzodiazol-5-yl]cyclobutyl]butanoyl)-6-oxo-octahydropyrrolo[1,2-a][1,5]diazocin-5-yl]carbamoyl]-1H-indole-5-carbonylphosphonic acid], the DC50 lay within 100 to 1000 nM.

As to `Cc1ncsc1-c1ccc([C@H](C)NC(=O)[C@@H]2C[C@@H](O)CN2C(=O)[C@@H](NC(=O)CCCCCc2cccc(NC(=O)[C@H](CCC(N)=O)NC(=O)[C@@H]3Cc4cccc5c4N3C(=O)[C@@H](NC(=O)c3cc4cc(C(=O)P(=O)(O)O)ccc4[nH]3)CC5)c2F)C(C)(C)C)cc1` [Compound I-250, 2-[[(2S,11S)-2-[[(1S)-3-carbamoyl-1-[[2-fluoro-3-(5-[[(2S)-1-[(2S,4R)-4-hydroxy-2-[[(1S)-1-[4-(4-methyl-1,3-thiazol-5-yl)phenyl]ethyl]carbamoyl]pyrrolidin-1-yl]-3,3-dimethyl-1-oxobutan-2-yl]carbamoyl]pentyl)phenyl]carbamoyl]propyl]carbamoyl]-12-oxo-1-azatricyclo[6.4.1.0^[4,13]]trideca-4(13),5,7-trien-11-yl]carbamoyl]-1H-indole-5-carbonylphosphonic acid], the DC50 fell in the range of 10 to 100 nM.

On to `Cc1ncsc1-c1ccc([C@H](C)NC(=O)[C@@H]2C[C@@H](O)CN2C(=O)[C@@H](NC(=O)CCCc2cccc(OC[C@@H](NC(=O)[C@@H]3Cc4cccc5c4N3C(=O)[C@@H](NC(=O)c3cc4cc(C(=O)P(=O)(O)O)ccc4[nH]3)CC5)C(N)=O)c2)C(C)(C)C)cc1` [Compound I-194, diammonium 2-[[(2S,11S)-2-[[(2S)-4-carbamoyl-1-[3-(3-[[(2S)-1-[(2S,4R)-4-hydroxy-2-[[(1S)-1-[4-(4-methyl-1,3-thiazol-5-yl)phenyl]ethyl]carbamoyl]pyrrolidin-1-yl]-3,3-dimethyl-1-oxobutan-2-yl]carbamoyl]propyl)phenoxy]butan-2-yl]carbamoyl]-12-oxo-1-azatricyclo[6.4.1.0^[4,13]]trideca-4(13),5,7-trien-11-yl]carbamoyl]-1H-indole-5-carbonylphosphonate], for which the DC50 was 10 to 100 nM.

In the case of `Cc1ncsc1-c1ccc(CNC(=O)[C@@H]2C[C@H](O)CN2C(=O)[C@@H](NC(=O)CCCCc2ccc(CO[C@H](C)[C@H](CCC(N)=O)NC(=O)[C@@H]3Cc4cccc5c4N3C(=O)[C@@H](NC(=O)c3cc4cc(C(=O)P(=O)(O)O)ccc4[nH]3)CC5)cc2)C(C)(C)C)cc1` [Compound I-121, diammonium 2-[[(2S,11S)-2-[[(3S,4R)-1-carbamoyl-4-[[4-(4-[[(2S)-1-[(2S,4S)-4-hydroxy-2-([[4-(4-methyl-1,3-thiazol-5-yl)phenyl]methyl]carbamoyl)pyrrolidin-1-yl]-3,3-dimethyl-1-oxobutan-2-yl]carbamoyl]butyl)phenyl]methoxy]pentan-3-yl]carbamoyl]-12-oxo-1-azatricyclo[6.4.1.0^[4,13]]trideca-4(13),5,7-trien-11-yl]carbamoyl]-1H-indole-5-carbonylphosphonate], the DC50 was more than 1000 nM.
